molecular target: T1, Polyunsaturated fatty acid 5-lipoxygenase (Rattus norvegicus, UniProt P12527); assay: biochemical; type: cell-based, RBL-1
T1 sequence (P12527 whole entry): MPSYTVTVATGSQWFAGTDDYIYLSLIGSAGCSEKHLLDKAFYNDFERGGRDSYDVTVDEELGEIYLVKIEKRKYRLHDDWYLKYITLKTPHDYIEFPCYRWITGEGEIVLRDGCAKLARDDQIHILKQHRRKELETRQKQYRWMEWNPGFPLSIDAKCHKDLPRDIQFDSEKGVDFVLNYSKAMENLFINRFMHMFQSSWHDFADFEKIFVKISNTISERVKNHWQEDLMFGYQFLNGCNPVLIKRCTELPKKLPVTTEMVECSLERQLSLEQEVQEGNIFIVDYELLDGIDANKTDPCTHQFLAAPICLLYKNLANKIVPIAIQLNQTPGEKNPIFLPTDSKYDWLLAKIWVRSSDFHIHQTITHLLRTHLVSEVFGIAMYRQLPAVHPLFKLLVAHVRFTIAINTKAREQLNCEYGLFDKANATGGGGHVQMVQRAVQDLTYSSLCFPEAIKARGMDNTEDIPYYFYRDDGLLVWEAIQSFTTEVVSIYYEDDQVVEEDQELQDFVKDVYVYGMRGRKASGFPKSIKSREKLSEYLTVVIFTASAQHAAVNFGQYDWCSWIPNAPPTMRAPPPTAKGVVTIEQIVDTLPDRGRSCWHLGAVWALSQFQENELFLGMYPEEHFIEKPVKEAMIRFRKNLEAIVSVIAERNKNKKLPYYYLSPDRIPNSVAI
Description: Inhibitory activity against 5-lipoxygenase enzyme from RBL-1 cells

Structure (SMILES)	IC50
Oc1ccccc1-c1nc(-c2ccc(F)cc2)c(-c2ccncc2)[nH]1	4.1 µM
CN(Cc1ccccc1)Cc1ccc(-c2nc(-c3ccncc3)c(-c3ccc(F)cc3)[nH]2)cc1	0.8 µM
C[S+]([O-])c1ccc(-c2nc(-c3ccc(F)cc3)c(-c3ccnc4ccccc34)[nH]2)cc1 (stereo unspecified)	7.2 µM

More lines, now with the values ahead:

IC50	Structure (SMILES)
5.6 µM	CN(C)c1ccc(-c2nc(-c3ccc(F)cc3)c(-c3ccncc3)[nH]2)cc1
3.8 µM	N#CN=C(N)Cc1ccc(-c2nc(-c3ccncc3)c(-c3ccc(F)cc3)[nH]2)cc1
7.2 µM	CC1(C)NC(c2ccc(-c3nc(-c4ccc(F)cc4)c(-c4ccncc4)[nH]3)cc2)=NO1

From ChEMBL document CHEMBL1150984, “2,4,5- triarylimidazole inhibitors of IL-1 biosynthesis” (Bioorg Med Chem Lett, 1995)
